The values that follow come from US20260258022A1, “NOVEL HETEROCYCLIC-SUBSTITUTED PYRIMIDINE DERIVATIVE EXHIBITING CANCER CELL GROWTH INHIBITORY EFFECT, AND PHARMACEUTICAL COMPOSITION CONTAINING SAME” (ONCOBIX CO., LTD., priority 2021, published 2026).

Test [1] deals with ALK(L1196M) (Homo sapiens, UniProt Q9UM73, L1196M). The test is described as follows: Kinase inhibitory activity, [33P]-ATP filter assay, ALK(L1196M). The test is classed as biochemical. To be noted: ALK point mutant kinase, scintillation counting. As for the experimental part: (§1) For the compounds of Examples 1 to 8 above, the inhibitory activity against ALK, ALK mutation (ALK(G1202R)), and […] (ALK(L1196M)) was measured, and the results are shown in Table 1 below. […] Crizotinib […] was used as a control drug. • 1. Each kinase was incubated under 8 mM MOPS, pH 7.0, 0.2 mM EDTA, 250 μM KKKGQEEEYVFIE, 1 mM sodium orthovanadate, 5 mM sodium-6-glycerophosphate, 10 mM Magnesium acetate, [^33P]-ATP. • 2. The reaction proceeded by adding the evaluation compound (DMSO solution) and Mg/ATP. • 3. After about 40 minutes at room temperature, the reaction was terminated by adding 10 μL of 0.5% phosphoric acid. • 4. The reaction solution was divided into 0.5% 10 μL and spotted on a P30 filtermat. • 5. It was washed four times with 0.425% phosphoric acid for about 4 minutes. After washing once with methanol, it was dried and analyzed by scintillation counting to measure the IC50 value.

For test [2], the system named is H3122 (EML4-ALK v1). The test is described as follows: Cancer cell growth inhibition, MTT assay, H3122. The test is classed as cell-based. To be noted: Homo sapiens, NCI-H3122, 72 hours incubation. As for the experimental part: (§2) The growth inhibitory effects of the compounds in Examples 3, 7, and 8 above on ALK mutant cancer cell lines were measured. Anticancer efficacy activity was measured using H3122 (EML4-ALK v1) and H2228 (EML4-ALK v3) as ALK mutant cell lines by the following method.
(§3) 2×10^5 cells were seeded in a 96-well plate. 24 hours later, each of the compounds in Examples 3, 7, and 8 was treated in a dose-dependent manner, incubated for 72 hours, reacted with 15 uL MTT reagent for 4 hours, and then 100 uL 10% SDS was added thereto and incubated for 24 hours. The change in final OD was read at 595 nm. To analyze the MTT results, IC50 values were measured using prism software.
(§4) APG-2449 was used as a control drug.

Test [3] has as its system H2228 (EML4-ALK v3). The test is described as follows: Cancer cell growth inhibition, MTT assay, H2228. The test is classed as cell-based. The following applies: Homo sapiens, NCI-H2228, 72 hours incubation. On the procedure:
as §2, §3, §4

For test [4], the target named is ALK(G1202R) (Homo sapiens, UniProt Q9UM73, G1202R). Put plainly: Kinase inhibitory activity, [33P]-ATP filter assay, ALK(G1202R). To be noted: ALK point mutant kinase, scintillation counting. The test is classed as biochemical. As for the experimental part: as §1
For test [5], the target named is ALK (Homo sapiens, UniProt Q9UM73). Put plainly: Kinase inhibitory activity, [33P]-ATP filter assay, ALK. The test is classed as biochemical. The following applies: wild-type ALK kinase, scintillation counting. As for the experimental part: as §1
ALK, sequence (Q9UM73 19-1620): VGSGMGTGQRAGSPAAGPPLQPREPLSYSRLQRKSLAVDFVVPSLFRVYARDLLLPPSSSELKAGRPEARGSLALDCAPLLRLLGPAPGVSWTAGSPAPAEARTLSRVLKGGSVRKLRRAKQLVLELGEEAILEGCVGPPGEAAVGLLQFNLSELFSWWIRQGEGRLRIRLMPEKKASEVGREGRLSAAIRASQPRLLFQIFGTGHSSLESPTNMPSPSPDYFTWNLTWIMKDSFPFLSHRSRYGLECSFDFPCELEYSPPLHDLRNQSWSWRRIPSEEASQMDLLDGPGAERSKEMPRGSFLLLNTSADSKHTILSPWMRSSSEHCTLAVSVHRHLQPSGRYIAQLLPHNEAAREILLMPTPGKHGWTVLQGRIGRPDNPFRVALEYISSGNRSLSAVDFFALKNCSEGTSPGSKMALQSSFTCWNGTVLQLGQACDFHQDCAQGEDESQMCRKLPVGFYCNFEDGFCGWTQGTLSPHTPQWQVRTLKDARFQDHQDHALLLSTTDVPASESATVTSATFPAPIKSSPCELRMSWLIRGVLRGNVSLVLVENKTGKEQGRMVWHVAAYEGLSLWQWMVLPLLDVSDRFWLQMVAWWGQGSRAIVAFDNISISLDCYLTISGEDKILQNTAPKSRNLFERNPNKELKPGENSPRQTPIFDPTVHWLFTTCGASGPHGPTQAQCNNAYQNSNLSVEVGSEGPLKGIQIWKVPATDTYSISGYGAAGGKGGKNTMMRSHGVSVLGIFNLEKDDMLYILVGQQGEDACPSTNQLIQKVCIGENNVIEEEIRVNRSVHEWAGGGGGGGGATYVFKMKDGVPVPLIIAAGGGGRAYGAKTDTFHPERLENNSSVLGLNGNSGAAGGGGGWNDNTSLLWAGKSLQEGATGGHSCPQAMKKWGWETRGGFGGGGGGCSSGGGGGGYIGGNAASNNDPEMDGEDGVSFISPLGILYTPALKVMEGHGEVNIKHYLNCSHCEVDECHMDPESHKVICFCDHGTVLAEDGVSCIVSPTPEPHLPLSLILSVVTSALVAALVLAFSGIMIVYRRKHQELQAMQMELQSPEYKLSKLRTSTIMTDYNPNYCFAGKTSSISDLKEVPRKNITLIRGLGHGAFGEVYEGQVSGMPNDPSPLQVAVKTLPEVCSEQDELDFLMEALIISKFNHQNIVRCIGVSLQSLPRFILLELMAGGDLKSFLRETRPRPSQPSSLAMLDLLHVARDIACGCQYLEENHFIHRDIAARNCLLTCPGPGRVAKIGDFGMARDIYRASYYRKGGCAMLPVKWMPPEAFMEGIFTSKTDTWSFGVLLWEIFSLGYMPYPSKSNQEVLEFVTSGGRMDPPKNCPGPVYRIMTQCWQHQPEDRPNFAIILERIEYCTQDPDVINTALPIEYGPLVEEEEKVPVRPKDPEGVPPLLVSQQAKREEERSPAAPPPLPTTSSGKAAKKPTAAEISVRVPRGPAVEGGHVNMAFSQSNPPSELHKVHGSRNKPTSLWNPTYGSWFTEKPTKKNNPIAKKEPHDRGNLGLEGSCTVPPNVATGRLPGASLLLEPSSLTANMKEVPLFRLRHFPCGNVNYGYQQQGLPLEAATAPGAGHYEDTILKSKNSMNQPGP

ALK(G1202R), sequence (Q9UM73 19-1620 G1202R): as the sequence (Q9UM73 19-1620) above, with G1184R counted along it
ALK(L1196M), sequence (Q9UM73 19-1620 L1196M): as the sequence (Q9UM73 19-1620) above, with L1178M counted along it

Turning to `Cc1cc(Nc2ncc(Cl)c(Nc3ccccc3S(=O)(=O)C(C)C)n2)c(OC(C)C)cc1C1=CCN(C2CCOCC2)CC1` [APG-2449, reference compound], the IC50 in test [1] is 0.9 nM; in test [2], 87.8 nM; in test [3] it was 62.9 nM; in test [4], more than 1000 nM; in test [5] it was 0.8 nM.

`Cc1cc(Nc2ncc(Cl)c(Nc3ccccc3N(C)S(C)(=O)=O)n2)c(OC(C)C)cc1C1=CCN(C2CCOCC2)CC1` [Example 1, N-(2-((5-chloro-2-((2-isopropoxy-5-methyl-4-(1-(tetrahydro-2H-pyran-4-yl)-1,2,3,6-tetrahydropyridin-4-yl)phenyl)amino)pyrimidin-4-yl)amino)phenyl)-N-methylmethanesulfonamide]: the values for the IC50 in test [1], in test [4] and in test [5] were 0.2 nM, 17.8 nM and 1.1 nM, respectively.

On to `Cc1cc(Nc2ncc(Cl)c(Nc3ccccc3NS(C)(=O)=O)n2)c(OC(C)C)cc1C1=CCN(C2CCOCC2)CC1` [Example 2, N-(2-((5-chloro-2-((2-isopropoxy-5-methyl-4-(1-(tetrahydro-2H-pyran-4-yl)-1,2,3,6-tetrahydropyridin-4-yl)phenyl)amino)pyrimidin-4-yl)amino)phenyl)methanesulfonamide], for which the figures for the half-maximal inhibitory concentration (IC50) in test [1], in test [4] and in test [5] were 0.6 nM, 25.8 nM and 1.8 nM, respectively.

Consider `Cc1cc(Nc2ncc(Cl)c(Nc3ccccc3N(C)S(=O)(=O)C3CC3)n2)c(OC(C)C)cc1C1=CCN(C2CCOCC2)CC1` [Example 3, N-(2-((5-chloro-2-((2-isopropoxy-5-methyl-4-(1-(tetrahydro-2H-pyran-4-yl)-1,2,3,6-tetrahydropyridin-4-yl)phenyl)amino)pyrimidin-4-yl)amino)phenyl)-N-methylcyclopropanesulfonamide], for which the 50% inhibitory concentration (IC50) in test [1] turned out to be 0.05 nM; in test [2] it was 31.9 nM; in test [3], 43.1 nM; in test [4] it was 0.7 nM; in test [5], 0.6 nM.

In the case of `Cc1cc(Nc2ncc(Cl)c(Nc3ccccc3N(C)S(=O)(=O)C(C)C)n2)c(OC(C)C)cc1C1=CCN(C2CCOCC2)CC1` [Example 4, N-(2-((5-chloro-2-((2-isopropoxy-5-methyl-4-(1-(tetrahydro-2H-pyran-4-yl)-1,2,3,6-tetrahydropyridin-4-yl)phenyl)amino)pyrimidin-4-yl)amino)phenyl)-N-methylpropane-2-sulfonamide], the figures for the IC50 in test [1], in test [4] and in test [5] were 0.3 nM, 161 nM and 0.9 nM, respectively.

Consider `Cc1cc(Nc2ncc(Cl)c(Nc3ccccc3N(C3CC3)S(C)(=O)=O)n2)c(OC(C)C)cc1C1=CCN(C2CCOCC2)CC1` [Example 5, N-(2-((5-chloro-2-((2-isopropoxy-5-methyl-4-(1-(tetrahydro-2H-pyran-4-yl)-1,2,3,6-tetrahydropyridin-4-yl)phenyl)amino)pyrimidin-4-yl)amino)phenyl)-N-cyclopropylmethanesulfonamide], for which the IC50 in test [1] amounted to 0.5 nM; in test [4] it was 153 nM; in test [5], 3.1 nM.

As to `Cc1cc(Nc2ncc(Cl)c(Nc3ccccc3N(C(C)C)S(C)(=O)=O)n2)c(OC(C)C)cc1C1=CCN(C2CCOCC2)CC1` [Example 6, N-(2-((5-chloro-2-((2-isopropoxy-5-methyl-4-(1-(tetrahydro-2H-pyran-4-yl)-1,2,3,6-tetrahydropyridin-4-yl)phenyl)amino)pyrimidin-4-yl)amino)phenyl)-N-isopropylmethanesulfonamide], the IC50 in test [1] was 6.7 nM; in test [4], 254 nM; in test [5] it was 0.6 nM.

As to `Cc1cc(Nc2ncc(Cl)c(Nc3ccccc3N(C)S(C)(=O)=O)n2)c(OCC(F)(F)F)cc1C1=CCN(C2CCOCC2)CC1` [Example 7, N-(2-((5-chloro-2-((5-methyl-4-(1-(tetrahydro-2H-pyran-4-yl)-1,2,3,6-tetrahydropyridin-4-yl)-2-(2,2,2-trifluoroethoxy)phenyl)amino)pyrimidin-4-yl)amino)phenyl)-N-methylmethanesulfonamide], the half-maximal inhibitory concentration (IC50) in test [1] stood at 0.05 nM; in test [2] it was 39.1 nM; in test [3], 16.8 nM; in test [4], 10.5 nM; in test [5], 0.5 nM.

On to `Cc1cc(Nc2ncc(Cl)c(Nc3ccccc3N(C)S(N)(=O)=O)n2)c(OC(C)C)cc1C1=CCN(C2CCOCC2)CC1` [Example 8], for which the half-inhibitory concentration (IC50) was determined as 0.07 nM in test [1]; 22.1 nM in test [2]; 20.8 nM in test [3]; 17.8 nM in test [4]; 0.6 nM in test [5].
